Source: patent US5302611A, “Oxindole alkaloids having properties stimulating the immunologic system & preparation containing the same” (Keplinger; Klaus, priority 1980, dated 1994)
Where two headings read alike, the source gives them in different places.

Tests used:
[1] = system: neutrophil granulocytes (PMNL); experiment: Granulocytic test modified after BRANDT (phagocytosis of yeast particles); type: cell-based, human
Excerpt: 1. […] They represent about 60-70% of all leucocytes in the human blood. The phagocytosis effect of all these granulocytes can be measured in vitro according to a method developed by BRAND (Scand. J. Haematol. Suppl. 2, 1967) and modified by TYMPNER (Munich Med. Weekly 8, 251, 1978).
A granulocytic fraction is taken from the blood of healthy probands (PMNL--abbreviation of polymorphonuclearleucocytes)
This PMNL-fraction mainly consists of neutrophil granulocytes and few eosinophil and basophil granulocytes as well as of lymphocytes, monocytes and thrombocytes. After addition of a defined amount of yeast cells (Saccharomyces cerevisiae) and the substance to be tested incubation is carried out for 10 minutes at 37° C., the suspension is spread on an object carrier and incubated at room temperature for further 35 minutes. Then the spreads are coloured and microscopically evaluated. 100 PMNL-cells are selected per object carrier, and it is determined how many yeast particles of the individual cells have been phagocytised. The phagocytosis index indicates the average number of phagocytised yeast particles.
15 ml of heparinised venous blood of clinically healthy adults was diluted with 1.5% of dextran T 500 (Pharmacia) 2:1 and allowed to stand at room temperature for 30 minutes. The supernatant containing leucocytes was injected into a sterile plastic tube and centrifugated for 7 minutes at 500 r.p.m. The granulocytes in the deposit were washed twice with 5 ml of PPM I-buffer in each case. Then the granulocytes were suspended in about 5 ml of buffer and adjusted in the Neubauer's chamber to a concentration of 5×10^6 cells/ml.
Yeast suspended in 0.9% of NaCl was heated to 100° C., three times filtered through gaze and adjusted to 3-5×10^7 particles/ml.
The serum of 5 clinically healthy adults was mixed and frozen in portions of 5 ml. For the test dilution was carried out with 0.9% of NaCl 1:10.
The test was carried out as follows: 0.2 ml of substance dissolved in 0.9% of NaCl and 0.2 ml of 0.9% NaCl, as a control substance, were pipetted to 0.2 ml, each, of pool serum, granulocyte- and yeast suspension and first incubated for 10 minutes at 37° C. Then 0.5 ml of each preparation were applied to an object carrier and incubated in a humid chamber at room temperature for further 35 minutes. Granulocytes deposited, the supernatant was carefully washed with 0.9% of NaCl, and the object carrier was dried with a dryer.
100 granulocytes were counted out per object carrier, and it was determined how many yeast particles of the individual cells had been phagocytised. The phagocytosis index (PJ) indicates the average number of yeast particles per granulocyte. The increase (S) of the phagocytosis activity in the blank value was calculated according to: [formula]

[2] = system: isolated polymorphonuclear leucocytes (PMNL); experiment: Chemiluminescence test (CL), PMNL method (isolated granulocytes); type: cell-based, human; settings: CL method not stated
Experimental: 2. Chemiluminescence test (CL)
The low light yield of such CL-reactions of phagocytised cells is increased in the in-vitro-experiment by the addition of substances which are oxydated by activated oxygen and thus produce light of a certain wavelength, which can be physically measured. Suitable substrates are luminole (5-amino-2,3-dihydro-1,4-phthalazindione) and lucigenine (10,10'-dimethyl-9,9'-biacri-diniumdinitrate), which increase the CL-response by 10^3 times.
All tests were carried out in 6-channel-Biolumat LB 9505 of Berthold, connected to an Apple-computer with a CL-evaluation program of Berthold.
Lucigenine was chosen for light amplification which emits photons at a narrow wavelength distribution of about 510 nm and thus almost lies in the optimum of the photo-multiplier sensitivity.
The pH-value of the measuring solution should be between 7.1 and 7.4, which is obtained by the addition of veronal-buffered salt solution. The test substances were dissolved in phosphate-buffered salt solution, (PBS-buffer). Both buffer systems contain 0.1% of glucose, because the "respiratory-burst"-reaction is connected with an increase of the glucose-metabolism.
Opsonised zymosan was used for phagocyte-activation. The measurement of the CL of isolated granulocytes was carried out with native blood of isolated polymorphonuclear leucocytes (PMNL), which had been adjusted with PBS-Puffer to 10^6 […].
The test substances were first together with the isolated granulocytes or with the whole blood incubated at room temperature for 10 minutes and then in biclumate for 10 minutes at 37° C. After addition of the opsonised zymosan, measurement in the biolumat at 37° C. started. […] A curve which was typical for each substance was obtained. The integrated surfaces are directly proportional to the intensity of the CL-response.
For determining the stimulation of the "respiratory-burst" of granulocytes,which had taken place, the same formula as for the granulocytic test was used.
20 ml of native blood were mixed with 30 mg EDTA. 15 ml of this blood were mixed with 7 ml of dextran in a syringe and allowed to stand at room temperature for 30 minutes. The leucocyte-containing supernatant was transfered into a sterile centrifugal tube and centrifugated at 1000 r.p.m. for 10 minutes. The deposit consisted of leucocytes and residual portions of erythrocytes, which can influence measurement by their colour quench. The residual erythrocytes were removed by hypotonic lyis. For this purpose, the deposit was suspended in 0.25% of NaCl-solution and agitated on the whirlmix for 20 seconds. Then 20 ml of 1.6% NaCl-solution were admixed and agitated again. After centrifugation at 2000 r.p.m. for 10 minutes, the supernatant was sucked off and the whole process was repeated twice. Subsequently, the deposit was suspended in 2 ml of PBS-buffer and diluted 1:10 with Turcks-solution. It was adjusted in the Neubauer's chamber with PBS-buffer to 10^6 -cells/ml.
630 μl of veronal-buffered salt solution
100 μl of lucigenine-solution
200 μl of substance dissolved in PBS and PBS as control
After preincubation at room temperature for 10 minutes and subsequent incubation for 10 minutes at 37° C. in 6-channel-Biolumat, 40 μl of opsonised zymosan were admixed under through stirring and measurement was started. Measuring was stopped after 60 minutes.
The CL-response of the samples was stored by a computer over the measuring period, and after measurement illustrated in the form of a curve. By integration of the surfaces, the intensity of the CL-response of the respective sample was obtained in cpm.
The increase S of the CL-response by a test substance was calculated according to [formula]

[3] = up to a concentration of 10^-4 %

CC[C@@]1(O)C(=O)OCc2c1cc1n(c2=O)Cc2cc3ccccc3nc2-1 [camotothecine, reference compound]
effect in the granulocytic test ([1]; up to dilutions of 10^-6 %): no effects have been found

thalifabine [reference compound]
effect in the granulocytic test [1, 3]: negative

C=C[C@]12CN(C)[C@@H]3[C@H]4CO[C@H](C[C@H]41)[C@]1(C(=O)Nc4ccccc41)[C@@H]32 [Gelsemine, gelsemine, reference compound]
percental phagocytosis increase ([1]; concentration 10^-2): 22.1% | percental phagocytosis increase ([1]; concentration 10^-3): 40.4% | percental phagocytosis increase ([1]; concentration 10^-4): 33.7% | percental phagocytosis increase ([1]; concentration 10^-5): 8.2%

CCC1CN2CCC3(C(=O)Nc4ccccc43)C2CC1C(=COC)C(=O)OC (single isomer, unassigned; isomer b) [Rhynchophylline, normal-rhynchophyllin, isomer B]
activity in the granulocytic test [1]: not active

O=c1cccc2n1C[C@@H]1CNC[C@H]2C1 [cytisine, reference compound]
effect in the granulocytic test [1]: did not show any effect

COc1ccc2cc3[n+](cc2c1OC)CCc1cc2c(cc1-3)OCO2 [berberine, reference compound]
effect in the granulocytic test [1, 3]: inactive

COC(=O)C1=COC(C)C2CN3CCC4(C(=O)Nc5ccccc54)C3CC12 (centres unmarked) [Speciophylline, speciophylline]
percental phagocytosis increase ([1]; concentration 10^-2): 10.5% | percental phagocytosis increase ([1]; concentration 10^-3): 18.5% | percental phagocytosis increase ([1]; concentration 10^-4): 26.0% | percental phagocytosis increase ([1]; concentration 10^-5): 35.3%

COC(=O)C1=COC(C)C2CN3CCC4(C(=O)Nc5ccccc54)C3CC12 (single isomer, unassigned; isomer a) [Isomitraphylline, normal-isomitraphylline, isomer A]
activity in the granulocytic test [1]: active | percental phagocytosis increase ([1]; concentration 10^-2): 16.5% | percental phagocytosis increase ([1]; concentration 10^-3): 27.0% | percental phagocytosis increase ([1]; concentration 10^-4): 27.0% | percental phagocytosis increase ([1]; concentration 10^-5): 19.4% | percental phagocytosis increase ([1]; concentration 10^-6): 5.7% | percental increase of the CL-response ([2]; concentration 10^-3 %): 15.4% | percental increase of the CL-response ([2]; concentration 10^-4 %): 15.7% | percental increase of the CL-response ([2]; concentration 10^-5 %): 36.1% | percental increase of the CL-response ([2]; concentration 10^-6 %): 46.7% | percental increase of the CL-response ([2]; concentration 10^-7 %): 18.6%

COc1cc2c(cc1OC)[C@H](Cc1ccc(Oc3c4c(cc(OC)c3OC)-c3c(OC)c(OC)c(OC)c5c3[C@H](C4)N(C)CC5)cc1)N(C)CC2 [thalifaberine, reference compound]
effect in the granulocytic test [1, 3]: negative

COC(=O)C1=COC(C)C2CN3CCC4(C(=O)Nc5ccccc54)C3CC12 (single isomer, unassigned; isomer b) [Mitraphylline, normal-mitraphylline, isomer B]
activity in the granulocytic test [1]: not active

C1CCN2C[C@@H]3C[C@@H](CN4CCCC[C@@H]34)[C@H]2C1 [sparteine, reference compound]
effect in the granulocytic test [1, 3]: did not show any effect

COC(=O)C1=COC(C)C2CN3CCC4(C(=O)Nc5ccccc54)C3CC12 (single isomer, unassigned; isomer b) [Pteropodine, allo-pteropodine, isomer B]
activity in the granulocytic test [1]: active | percental phagocytosis increase ([1]; concentration 10^-2): 11.2% | percental phagocytosis increase ([1]; concentration 10^-3): 21.7% | percental phagocytosis increase ([1]; concentration 10^-4): 26.1% | percental phagocytosis increase ([1]; concentration 10^-5): 23.0% | percental increase of the CL-response ([2]; concentration 10^-3 %, listed as Pteropidine): 10.6% | percental increase of the CL-response ([2]; concentration 10^-4 %, listed as Pteropidine): 10.0% | percental increase of the CL-response ([2]; concentration 10^-5 %, listed as Pteropidine): 23.7% | percental increase of the CL-response ([2]; concentration 10^-6 %, listed as Pteropidine): 15.4%

CCC1CN2CCC3(C(=O)Nc4ccccc43)C2CC1C(=COC)C(=O)OC (single isomer, unassigned; isomer a) [Isorhynchophylline, normal-isorhynchophylline, isomer A]
activity in the granulocytic test [1]: active | percental phagocytosis increase ([1]; concentration 10^-2): 10.8% | percental phagocytosis increase ([1]; concentration 10^-3): 25.2% | percental phagocytosis increase ([1]; concentration 10^-4): 27.3% | percental phagocytosis increase ([1]; concentration 10^-5): 16.1% | percental phagocytosis increase ([1]; concentration 10^-6): 8.8%

COC(=O)C1=COC(C)C2CN3CCC4(C(=O)Nc5ccccc54)C3CC12 (single isomer, unassigned; isomer a) [Isopteropodine, allo-isopteropodine, isomer A]
activity in the granulocytic test [1]: active | percental phagocytosis increase ([1]; concentration 10^-2): 23.4% | percental phagocytosis increase ([1]; concentration 10^-3): 48.7% | percental phagocytosis increase ([1]; concentration 10^-4): 55.9% | percental phagocytosis increase ([1]; concentration 10^-5): 38.2% | percental phagocytosis increase ([1]; concentration 10^-6): 28.2% | percental phagocytosis increase ([1]; concentration 10^-7): 13.6% | activation at 1e-08 % ([2]; Homo sapiens, PMNL, concentration 10^-8 %, read-out: percental increase of the CL-response): 31.2% | percental increase of the CL-response ([2]; concentration 10^-3 %): 67.2% | percental increase of the CL-response ([2]; concentration 10^-4 %): 66.0% | percental increase of the CL-response ([2]; concentration 10^-5 %): 55.7% | percental increase of the CL-response ([2]; concentration 10^-6 %): 68.1% | percental increase of the CL-response ([2]; concentration 10^-7 %): 55.3%

huangshanine [reference compound]
effect in the granulocytic test [1, 3]: negative
